Experimental data taken from patent US12037354B2, “Cyclic pantetheine derivatives and uses thereof” (VectivBio Comet AG, priority 2018, dated 2024).

Columns and labels:
[1] = system: Venular Endothelial cells (HUVEC) (3C system); assay: BioMAP 3C system, Example 825; assay type: cell-based, human
Procedure: The BioMAP platform (BioMAP® Diversity PLUS Panel from Eurofins) is an in vitro phenotypic profiling technology that screened the compounds of the present disclosure (hereafter indicated as test agents) in human primary cell-based systems modelling complex tissue and disease states. The BioMAP assays were performed using the Eurofin's BioMAP Technology Platform as (see references 1 to 13 in the example 824 section) to model different diseases on primary cell-based model systems. These systems consisted of either single primary cell types or co-culture cells. Adherent cell types were cultured or co-cultured in 96 or 384-well plates until confluence followed by the addition of compounds prepared in DMSO at a final concentration of ≤0.1%. […]
Following the general procedure as described in Example 824, Venular Endothelial cells (HUVEC) (3C system) were treated with IL-1β, TNFα, IFNγ for 24 h to model Th1 driven cardiovascular and chronic inflammation diseases in the presence or absence of the compounds. Biomarker read out were; Tissue Factor, ICAM-1, E-selectin, uPAR (CD87), IL-8, […], HLA-DR, proliferation and SRB (Sulfo-rhodamine i.e. staining for protein content).

[2] = system: Peripheral blood mononuclear cells co-cultured with venular endothelial cells (HUVEC) (LPS system); assay: BioMAP LPS system, Example 827; assay type: cell-based, human
Procedure: (§1) The BioMAP platform (BioMAP® Diversity PLUS Panel from Eurofins) is an in vitro phenotypic profiling technology that screened the compounds of the present disclosure (hereafter indicated as test agents) in human primary cell-based systems modelling complex tissue and disease states. The BioMAP assays were performed using the Eurofin's BioMAP Technology Platform as (see references 1 to 13 in the example 824 section) to model different diseases on primary cell-based model systems. These systems consisted of either single primary cell types or co-culture cells. Adherent cell types were cultured or co-cultured in 96 or 384-well plates until confluence followed by the addition of compounds prepared in DMSO at a final concentration of ≤0.1%. In each cell-based system, primary cells from heathy donors (2-6 donors) were pooled and treated with compounds at 1 and 10 μM dose 1 h prior to stimulation and remain in culture as indicated in
(§2) Example 825, Example 826, Example 827, Example 828, Example 829, Example 830, Example 831, Example 832, Example 833, Example 834, Example 835, Example 836 and Example 837. For on the BioMAP® Diversity PLUS® Panel, please see the following references, which are incorporate herein.
Following the general procedure as described in Example 824, Peripheral blood mononuclear cells co-cultured with venular endothelial cells (HUVEC) (LPS system) were stimulated with LPS for 24 h in the presence or absence of compounds, to model cardiovascular disease and chronic inflammation. Biomarkers read out were; MCP-1, VCAM-1, Thrombomodulin, Tissue Factor, CD40, E-selectin, CD69, IL-8, IL-1α, M-CSF, sPGE2, SRB and TNFα.

[3] = system: Keratinocytes co-cultured with dermal fibroblast (KF3CT system); assay: BioMAP KF3CT system, Example 834; assay type: cell-based, human
Procedure: as §1, §2
Following the general procedure as described in Example 824, Keratinocytes were co-cultured with dermal fibroblast (KF3CT system) and treated with […], TNFα, IFNγ and TGFβ for 24 h in the presence or absence of the compounds to model psoriasis, dermatitis and skin biology. Biomarkers read out were; MCP-1, ICAM-1, IP-10, IL-8, MIG, IL-1α, MMP-9, PAI-1, SRB, TIMP-2, uPA.

[4] = system: Peripheral blood mononuclear cells co-cultured with venular endothelial cells (Sag system); assay: BioMAP Sag system, Example 828; assay type: cell-based, human; conditions: Sag system, 1 uM
Procedure: as §1, §2
Following the general procedure as described in Example 824, Peripheral blood mononuclear cells were co-cultured with venular endothelial cells and treated with soluble antigen (T-cell ligands) (Sag system) in the presence or absence of compounds to model autoimmune and chronic inflammation. Biomarkers read out were; MCP-1, CD38, CD40, E-selectin, CD69, IL-8, MIG, PBMC cytotoxicity, Proliferation and SRB.

[5] = system: Coronary artery smooth muscle cells (CASM3C system); assay: BioMAP CASM3C system, Example 832; assay type: cell-based, human
Procedure: as §1, §2
Following the general procedure as described in Example 824, Coronary artery smooth muscle cells (CASM3C system) were treated with IL-1β, TNFα and IFNγ for 24 h in the presence or absence of the compounds to model cardiovascular inflammation and restenosis. Biomarker reads out were; MCP-1, VCAM-1, Throbomodulin, Tissue factor, uPAR, IL-8, MIG, HLA-DR, IL-6, LDLR, M-CSF, PAI-1, Proliferation, SAA and SRB

[6] = system: Dermal fibroblasts (HDF3CGF system); assay: BioMAP HDF3CGF system, Example 833; assay type: cell-based, human; conditions: 1 uM
Procedure: as §1, §2
Following the general procedure as described in Example 824, Dermal fibroblasts (HDF3CGF system) were treated with IL-1β, TNFα and IFNγ, EGF, bFGF and PDGF-BB for 24 h in the presence or absence of the compounds to model fibrosis and chronic inflammation. Biomarkers read out were; MCP-1, VCAM-1, ICAM-1, Collagen-I, Collagen-III, IP-10, I-TAC, IL-8, MIG, EGFR, M-CSF, MMP-1, PAI-1, SRB, TIMP-1, TIMP-2 and proliferation was measured for 72 h.

[7] = system: Bronchial epithelial cells co-cultured with dermal fibroblast (BF4T system); assay: BioMAP BF4T system, Example 830; assay type: cell-based, human; conditions: 10 uM
Procedure: as §1, §2
Following the general procedure as described in Example 824, Bronchial epithelial cells were co-cultured with dermal fibroblast (BF4T system) and were treated with TNFα and IL-4 for 24 h in the presence or absence of the compounds to model asthma, allergy, fibrosis, lung inflammation. Biomarkers read out were; MCP-1, Eotaxin-3, VCAM-1, ICAM-1, CD90, IL-8, IL-1α, keratin 8/18, MMP-1, MMP-3, MMP-9, PAI-1, SRB, tPA, uPA.

[8] = system: Peripheral blood mononuclear cells co-cultured with B-cells (BT system); assay: BioMAP BT system, Example 829; assay type: cell-based, human; conditions: BT system; 10 uM
Procedure: as §1, §2
Following the general procedure as described in Example 824, Peripheral blood mononuclear cells were co-cultured with B-cells (BT system) were treated with either α-IgM and TCR ligands for 72 h in the presence or absence of the compounds to model asthma, allergy, oncology and autoimmunity. Biomarkers read out were; B-cell proliferation, PBMC cytotoxicity, secreted IgG, sIL-17A, sIL-17F, sIL-2, sIL-6 and s-TNFα.

[9] = system: Venular Endothelial cells (HUVEC) (4H system); assay: BioMAP 4H system, Example 826; assay type: cell-based, human
Procedure: as §1, §2
Following the general procedure as described in Example 824, Venular Endothelial cells (HUVEC) (4H system) were treated with IL-4 and histamine for 24 h to model Th2 driven allergy and autoimmunity in the presence or absence of compounds. Biomarkers read out were; MCP-1, Eotaxin-3. VCAM-1, P-selectin, uPAR (CD87), SRB and VEGFRII.

[10] = system: Venular endothelial cells co-cultured with macrophages (Mphg system); assay: BioMAP Mphg system, Example 836; assay type: cell-based, human
Procedure: as §1, §2
Following the general procedure as described in Example 824, Venular endothelial cells co-cultured with macrophages (Mphg system) and treated with TLR2 ligand for 24 h in the presence or absence of the compounds to mimic cardiovascular inflammation, restenosis and chronic inflammation. Biomarkers read out were; MCP-1, MIP-1α, VCAM-1, CD40, E-selectin, CD69, IL-8, IL-1α, M-CSF, sIL-10 and SRB.

HepG2 cells = assay: Glucose uptake Glo Assay, Example 821; assay type: cell-based; conditions: for activation at 10 µM / activation at 50 µM: Homo sapiens, 20 min, read-out: % increase in Glucose Uptake
Procedure: The effect of compounds from the present disclosure on glucose uptake was determined in HepG2 cells (ATCC, HB-8065) using the glucose uptake Glo Assay Kit (Promega, 11343 according to manufacturer instructions. HepG2 cells were cultured in complete DMEM-glucose media (Gibco) supplemented with 10% FBS (37° C. incubator with 5% CO2) and seeded in 96-well plates at 30,000 cells/well. After removing the complete media, 100 μL/well of serum-free, high-glucose DMEM media were added to the wells and incubated overnight (37° C. incubator with 5% CO2). Media was then replaced with 100 μl/well DPBS containing 0.6°/o BSA and starved for 1 hour. Next, DPBS was removed and 45 μl/well of insulin (100 nM) or compounds (10 μM-50 μM) were added to the wells and incubated for 10 minutes (37° C. incubator with 5% CO2). Insulin and compounds were prepared in DPBS with 0.6% BSA with a final DMSO concentration of 0.1%. Next, 5 μl of 2DG (10 mM) in DPBS were added per well and allowed to incubate for 20 minutes followed by addition of 25 μl stop buffer. 37.5 μl of the mixture were then transferred to a new plate and 12.5 μl of Neutralization buffer added to the wells. After, 50 μl of 2DG6P detection Reagent were added and incubated for 0.5-1 hour at room temperature. Luminescence was measured with 0.3-1 second integration on a luminometer.

COC(=O)CCC(=O)CC(=O)SCCNC(=O)CCNC(=O)[C@@H]1OP(=O)(O)OCC1(C)C [Compound 6]
% decrease in IL-8 ([1]; 3C system, 1 uM): ≥10%
% increase in Proliferation (HUVEC) ([1]; 3C system, 10 uM): ≥20%
% increase in Proliferation (HUVEC) ([1]; concentration tested 10 uM): ≥20%
% decrease in IL-8 ([1]; procedure of Example 825, concentration tested 1 uM): ≥10%
% decrease in M-CSF ([2]; Example 988, concentration tested 1 uM): ≥10%
% decrease in IL-8 ([2]; LPS system, 1 uM): ≥10%
% decrease in M-CSF ([2]; LPS system, 1 uM): ≥10%
% decrease in Tissue Factor ([2]; LPS system, 1 uM): ≥10%
% decrease in sTNFα ([2]; LPS system, 1 uM): ≥20%
% decrease in Tissue Factor ([2]; concentration tested 1 uM): ≥10%
% decrease in sTNFα ([2]; concentration tested 1 uM): ≥20%
% decrease in IL-8 ([2]; procedure of Example 827, concentration tested 1 uM): ≥10%
% decrease in MCP-1 ([3]; 10 uM (Example 927)): ≥10%
% decrease in MCP-1 ([3]; 10 uM (Example 928)): ≥10%
% increase in MCP-1 [4]: ≥10%
% decrease in HLA-DR ([5]; 1 uM): ≥10%
% decrease in M-CSF ([5]; 1 uM): ≥10%
% decrease in VCAM-1 ([5]; 1 uM): ≥10%
% decrease in Thrombomodulin ([5]; 10 uM): ≥20%
% decrease in TIMP-1 [6]: ≥10%
% increase in 72 Hour Proliferation [6]: ≥10%
% increase in VCAM-1 [7]: ≥10%
% decrease in sTNFα [8]: ≥10%
% decrease in MCP-1 ([9]; 4H system, 1 uM): ≥10%
% decrease in VEGFRII ([9]; 4H system, 1 uM): ≥10%
% decrease in MCP-1 ([9]; concentration tested 1 uM): ≥10%
% decrease in VEGFRII ([9]; concentration tested 1 uM): ≥10%
% decrease in α-SMA ([10]; procedure of Example 836, 1 uM): ≥10%
% increase in MMP-1 ([10]; procedure of Example 836, 10 uM): ≥10%

CCOC(=O)CCC(=O)SCCNC(=O)CCNC(=O)[C@@H]1OP(=O)(N[C@@H](C)C(=O)OCC)OCC1(C)C (some centres unmarked) [Compound 206]
% increase in sIL-6 [8]: ≥20%

CC1(C)COP(=O)(OCc2ccccc2)O[C@H]1C(=O)NCCC(=O)NCCS (some centres unmarked) [Compound 862]
activation at 10 µM (HepG2 cells): ≥ 20%
activation at 50 µM (HepG2 cells): ≥ 10%
% increase in Glucose Uptake (HepG2 cells; concentration tested 10 uM): ≥20%
% increase in Glucose Uptake (HepG2 cells; concentration tested 50 uM): ≥10%

COC(=O)CCC(=O)SCCNC(=O)CCNC(=O)[C@@H]1OP(=O)(OCc2ccccc2)OCC1(C)C (some centres unmarked) [Compound 863]
activation at 50 µM (HepG2 cells): ≥ 10%
% increase in Glucose Uptake (HepG2 cells; concentration tested 50 uM): ≥10%

C[C@@H](O)CC(=O)SCCNC(=O)CCNC(=O)[C@@H]1OP(=O)(OCc2ccccc2)OCC1(C)C (some centres unmarked) [Compound 864]
activation at 50 µM (HepG2 cells): ≥ 20%
% increase in Glucose Uptake (HepG2 cells; concentration tested 50 uM): ≥20%

CCOP1(=O)OCC(C)(C)[C@H](C(=O)NCCC(=O)NCCS)O1 (some centres unmarked) [Compound 865]
activation at 10 µM (HepG2 cells): ≥ 20%
% increase in Glucose Uptake (HepG2 cells; concentration tested 10 uM): ≥20%

COC(=O)CC1(C)OCC(C)(C)[C@H](C(=O)NCCC(=O)NCCS)O1 (some centres unmarked) [Compound 866]
% increase in Glucose Uptake (HepG2 cells; 10 uM (Example 973)): ≥30%
activation at 10 µM (HepG2 cells): ≥ 30%

C/C=C/C(=O)CC(=O)SCCNC(=O)CCNC(=O)[C@@H]1OP(=O)(OCc2ccccc2)OCC1(C)C (some centres unmarked) [Compound 867]
activation at 10 µM (HepG2 cells): ≥ 20%
% increase in Glucose Uptake (HepG2 cells; concentration tested 10 uM): ≥20%

CC1(C)OCC(C)(C)[C@H](C(=O)NCCC(=O)NCCSC(=O)C(=O)O)O1 [Compound 868]
% increase in Glucose Uptake (HepG2 cells; 10 uM (Example 973)): ≥30%
activation at 10 µM (HepG2 cells): ≥ 30%

CC1(C)COP(=O)(O)O[C@H]1C(=O)NCCC(=O)NCCS [Compound 869]
activation at 10 µM (HepG2 cells): ≥ 10%
% increase in Glucose Uptake (HepG2 cells; concentration tested 10 uM): ≥10%

CC1(C)OCC(C)(C)[C@H](C(=O)NCCC(=O)NCCSSCCNC(=O)CCNC(=O)[C@@H]2OC(C)(C)OCC2(C)C)O1 [Compound 870]
activation at 10 µM (HepG2 cells): ≥ 30%
% increase in Glucose Uptake (HepG2 cells; concentration tested 10 uM): ≥30%
